Laboratory results as given in patent US10793568B2, “Hormone receptor modulators for treating metabolic conditions and disorders” (ARDELYX, INC., priority 2016, dated 2020).

Key:
[1] = biological target: ligand binding domain of human FXR (Homo sapiens (Human), UniProt Q96RI1); experiment: FXR ligand binding assay (LanthaScreen TR-FRET, SRC2-2 peptide recruitment); conditions: for pEC50: -log EC50, concentration required to produce 50% activation; for Emax: extent of activation relative to GW4064, read-out: % Efficacy
ligand binding domain of human FXR, sequence (Q96RI1 262-486): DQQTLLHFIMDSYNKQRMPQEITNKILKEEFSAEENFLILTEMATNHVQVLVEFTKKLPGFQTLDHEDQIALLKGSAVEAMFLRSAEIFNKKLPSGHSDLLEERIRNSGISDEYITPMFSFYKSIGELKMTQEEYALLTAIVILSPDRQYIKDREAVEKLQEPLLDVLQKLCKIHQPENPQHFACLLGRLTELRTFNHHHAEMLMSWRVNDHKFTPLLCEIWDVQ

[2] = biological target: human Farnesoid X receptor ligand-binding domain/Gal4 DNA binding domain chimera (Homo sapiens (Human), UniProt Q96RI1); experiment: Cell-based assay of FXR activation (FXR-UAS-bla HEK 293T beta-lactamase reporter); conditions: cellular FXR beta-lactamase reporter assay; for Emax: HEK-293T, extent of activation relative to GW4064, read-out: % Efficacy; for EC50: FXR-UAS-bla HEK 293T cells, 16 h, pEC50 = -log EC50
human Farnesoid X receptor ligand-binding domain/Gal4 DNA binding domain chimera, sequence (Q96RI1 262-486, change not shown): as the sequence (Q96RI1 262-486) above
human Farnesoid X receptor ligand-binding domain/Gal4 DNA binding domain chimera, sequence (P04386 1-147 partner): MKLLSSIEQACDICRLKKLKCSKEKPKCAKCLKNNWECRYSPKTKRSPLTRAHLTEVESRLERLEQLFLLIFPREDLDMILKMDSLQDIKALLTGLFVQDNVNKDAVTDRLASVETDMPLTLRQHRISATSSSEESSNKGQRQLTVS
How it was run: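 Readout is cleavage of the CCF4 FRET substrate (409 nm excitation, blue 447 nm signal) by beta-lactamase, expressed under UAS control after a Gal4–human FXR LBD chimera is activated in HEK 293T cells. Compounds were added as 3-fold dilutions for 16 h at 37 °C in 2% charcoal-stripped FBS medium. Curves were fit to a 3-parameter logistic equation to give pEC50, with % activation relative to GW4064.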

`N#Cc1cc(N2C[C@@H]3C[C@H]2C[C@H]3OCc2c(-c3c(Cl)cccc3Cl)noc2C2(F)CC2)ccc1C(=O)O` [Compound I-123, 2-cyano-4-[(1S,4S,5R)-5-{[3-(2,6-dichlorophenyl)-5-(1-fluorocyclopropyl)-1,2-oxazol-4-yl]methoxy}-2-azabicyclo[2.2.1]heptan-2-yl]benzoic Acid] was tested, and the pEC50 [1] was 8.6, the Emax [1] was 160% and the Emax [2] was 99%. The EC50 [2] was 0.501 nM.
`CC(C)CCS(=O)(=O)NC(=O)c1ccc(N2C[C@@H]3C[C@H]2C[C@H]3OCc2c(-c3c(Cl)cccc3Cl)noc2C2CC2)c(F)c1` [Compound I-190, 4-((1S,4S,5R)-5-((5-cyclopropyl-3-(2,6-dichlorophenyl)isoxazol-4-yl)methoxy)-2-azabicyclo[2.2.1]heptan-2-yl)-3-fluoro-N-(isopentylsulfonyl)benzamide] was tested, and the pEC50 [1] was 8.4, the Emax [1] was 163% and the Emax [2] was 113%. The EC50 [2] was 0.0631 nM.
With `O=C(O)c1cc(C(F)(F)F)c2nc(N3C[C@@H]4C[C@H]3C[C@H]4OC(=O)c3c(-c4c(Cl)cccc4Cl)noc3C3CC3)sc2c1` [Compound I-5, 2-[(1S,4S,5R)-5-[5-cyclopropyl-3-(2,6-dichlorophenyl)-1,2-oxazole-4-carbonyloxy]-2-azabicyclo[2.2.1]heptan-2-yl]-4-(trifluoromethyl)-1,3-benzothiazole-6-carboxylic acid] the pEC50 [1] was 7.2, the Emax [1] was 139% and the Emax [2] was 102%. It also gave an EC50 [2] of 39.8 nM.
`O=C(O)c1ccc(N2C[C@@H]3C[C@H]2C[C@H]3OC(=O)c2c(-c3c(Cl)cccc3Cl)noc2C2CC2)c(F)c1` [Compound I-43, 4-[(1S,4S,5R)-5-[5-cyclopropyl-3-(2,6-dichlorophenyl)-1,2-oxazole-4-carbonyloxy]-2-azabicyclo[2.2.1]heptan-2-yl]-3-fluorobenzoic Acid] showed a pEC50 [1] of 7.8, an Emax [1] of 176% and an Emax [2] of 124%. It also gave an EC50 [2] of 6.31 nM.
For `Cc1cccc(C)c1-c1noc(C2CC2)c1CO[C@@H]1C[C@@H]2C[C@H]1CN2c1ccc(C(=O)O)cc1` [Compound I-117, 4-[(1S,4S,5R)-5-{[5-cyclopropyl-3-(2,6-dimethylphenyl)-1,2-oxazol-4-yl]methoxy}-2-azabicyclo[2.2.1]heptan-2-yl]benzoic Acid], the pEC50 [1] was 8.2, the Emax [1] was 113% and the Emax [2] was 100%. The EC50 [2] was 7.94 nM.
In the case of `CCCS(=O)(=O)NC(=O)c1ccc(N2C[C@@H]3C[C@H]2C[C@H]3OC(=O)c2c(-c3c(Cl)cccc3Cl)noc2C2CC2)cc1` [Compound I-46, (1S,4S,5R)-2-{4-[(propane-1-sulfonyl)carbamoyl]phenyl}-2-azabicyclo[2.2.1]heptan-5-yl 5-cyclopropyl-3-(2,6-dichlorophenyl)-1,2-oxazole-4-carboxylate], the pEC50 [1] is reported as 7.9, the Emax [1] is reported as 174% and the Emax [2] is reported as 110%. The EC50 [2] was 12.6 nM.
`O=C(NS(=O)(=O)C1CC1)c1ccc(N2C[C@@H]3C[C@H]2C[C@H]3OCc2c(-c3c(Cl)cccc3Cl)noc2C2(F)CC2)cc1` [Compound I-196, N-(cyclopropylsulfonyl)-4-((1S,4S,5R)-5-((3-(2,6-dichlorophenyl)-5-(1-fluorocyclopropyl)isoxazol-4-yl)methoxy)-2-azabicyclo[2.2.1]heptan-2-yl)benzamide] showed a pEC50 [1] of 8.5, an Emax [1] of 154% and an Emax [2] of 110%. It also gave an EC50 [2] of 0.794 nM.
For `O=C1OCc2cc(N3C[C@@H]4C[C@H]3C[C@H]4OCc3c(-c4c(Cl)cccc4Cl)noc3C3CC3)ccc21` [Compound I-141, 5-[(1S,4S,5R)-5-{[5-cyclopropyl-3-(2,6-dichlorophenyl)-1,2-oxazol-4-yl]methoxy}-2-azabicyclo[2.2.1]heptan-2-yl]-1,3-dihydro-2-benzofuran-1-one], the pEC50 [1] was 7, the Emax [1] was 137% and the Emax [2] was 106%. It also gave an EC50 [2] of 63.1 nM.
Compound `Cc1cccc(Cl)c1-c1noc(C2CC2)c1CO[C@@H]1C[C@@H]2C[C@H]1CN2c1ccc(C(=O)O)cc1` [Compound I-114, 4-[(1S,4S,5R)-5-{[3-(2-chloro-6-methylphenyl)-5-cyclopropyl-1,2-oxazol-4-yl]methoxy}-2-azabicyclo[2.2.1]heptan-2-yl]-benzoic Acid] has an Emax [1] of 124%, an Emax [2] of 103% and an EC50 [2] of 2.51 nM.
Work on `COc1cc(Cl)c(-c2noc(C3CC3)c2CO[C@@H]2C[C@@H]3C[C@H]2CN3c2nc3c(F)cc(C(=O)O)cc3s2)c(Cl)c1` [Compound I-286, 2-[(1S,4S,5R)-5-{[5-cyclopropyl-3-(2,6-dichloro-4-methoxyphenyl)-1,2-oxazol-4-yl]methoxy}-2-azabicyclo[2.2.1]heptan-2-yl]-4-fluoro-1,3-benzothiazole-6-carboxylic Acid] yielded a pEC50 [1] of 8.7, an Emax [1] of 130% and an Emax [2] of 108%. The EC50 [2] was 39.8 nM.
`CCc1cc(C(=O)O)ccc1N1C[C@@H]2C[C@H]1C[C@H]2OCc1c(-c2c(Cl)cccc2Cl)noc1C1CC1` [Compound I-109, 4-((1S,4S,5R)-5-((5-cyclopropyl-3-(2,6-dichlorophenyl)isoxazol-4-yl)methoxy)-2-azabicyclo[2.2.1]heptan-2-yl)-3-ethylbenzoic acid] gave a pEC50 [1] of 9.4, an Emax [1] of 117% and an Emax [2] of 100%. It also gave an EC50 [2] of 1.58 nM.
In the case of `CCc1cc(C(=O)O)cc2sc(N3C[C@@H]4C[C@H]3C[C@H]4OCc3c(-c4c(Cl)cccc4Cl)noc3C3CC3)nc12` [Compound I-246, 2-[(1S,4S,5R)-5-{[5-cyclopropyl-3-(2,6-dichlorophenyl)-1,2-oxazol-4-yl]methoxy}-2-azabicyclo[2.2.1]heptan-2-yl]-4-ethyl-1,3-benzothiazole-6-carboxylic Acid], the pEC50 [1] is reported as 8.5, the Emax [1] is reported as 136% and the Emax [2] is reported as 113%. The EC50 [2] was 0.251 nM.
`O=C(O)c1cc(F)c2nc(N3C[C@@H]4C[C@H]3C[C@H]4OCc3c(C4CCC5(CC4)CC5)noc3C3CC3)sc2c1` [Compound I-277, 2-[(1S,4S,5R)-5-[(5-cyclopropyl-3-{spiro[2.5]octan-6-yl}-1,2-oxazol-4-yl)methoxy]-2-azabicyclo[2.2.1]heptan-2-yl]-4-fluoro-1,3-benzothiazole-6-carboxylic Acid] showed a pEC50 [1] of 8.1, an Emax [1] of 106% and an Emax [2] of 123%. For the same compound, the EC50 [2] was 158 nM.
`O=C(O)c1cc(OCC(F)(F)F)c2nc(N3C[C@@H]4C[C@H]3C[C@H]4OCc3c(-c4c(Cl)cccc4Cl)noc3C3CC3)sc2c1` [Compound I-17, 2-[(1S,4S,5R)-5-{[5-cyclopropyl-3-(2,6-dichlorophenyl)-1,2-oxazol-4-yl]methoxy}-2-azabicyclo[2.2.1]heptan-2-yl]-4-(2,2,2-trifluoroethoxy)-1,3-benzothiazole-6-carboxylic acid] showed a pEC50 [1] of 8.2, an Emax [1] of 162% and an Emax [2] of 102%. It also gave an EC50 [2] of 0.1 nM.
`O=C(O)c1ccc(N2C[C@@H]3C[C@H]2C[C@H]3OCc2c(-c3c(Cl)cccc3Cl)noc2C2CC2)c(F)c1F` [Compound I-110, 4-((1S,4S,5R)-5-((5-cyclopropyl-3-(2,6-dichlorophenyl)isoxazol-4-yl)methoxy)-2-azabicyclo[2.2.1]heptan-2-yl)-2,3-difluorobenzoic acid] was tested, and the pEC50 [1] was 10, the Emax [1] was 132% and the Emax [2] was 111%. The EC50 [2] was 1 nM.
`O=C(NS(=O)(=O)C1CCOCC1)c1ccc(N2C(=O)[C@@H]3C[C@H]2C[C@H]3OCc2c(-c3c(Cl)cccc3Cl)noc2C2CC2)cc1` [Compound I-338] was tested, and the pEC50 [1] was 8.9, the Emax [1] was 158% and the Emax [2] was 106%. It also gave an EC50 [2] of 15.8 nM.
For `Cc1cc(N2C[C@@H]3C[C@H]2C[C@H]3OCc2c(-c3c(Cl)cccc3Cl)noc2C2CC2)ccc1C(=O)O` [Compound I-111, 4-((1S,4S,5R)-5-((5-cyclopropyl-3-(2,6-dichlorophenyl)isoxazol-4-yl)methoxy)-2-azabicyclo[2.2.1]heptan-2-yl)-2-methylbenzoic acid], the pEC50 [1] was 9.3, the Emax [1] was 132% and the Emax [2] was 100%. For the same compound, the EC50 [2] was 1.26 nM.
`O=C(O)c1cc(F)c2nc(N3C[C@@H]4C[C@H]3C[C@H]4OCc3c(-c4ccc(O)cc4)noc3C3CC3)sc2c1` [Compound I-293, 2-((1S,4S,5R)-5-((5-cyclopropyl-3-(4-hydroxyphenyl)isoxazol-4-yl)methoxy)-2-azabicyclo[2.2.1]heptan-2-yl)-4-fluorobenzo[d]thiazole-6-carboxylic acid] showed a pEC50 [1] of over 4.5 and an EC50 [2] of under 31.6 nM.
In the case of `Cc1cccc(Cl)c1-c1noc(C2CC2)c1CO[C@@H]1C[C@@H]2C[C@H]1CN2c1ccc(C(=O)O)c(F)c1` [Compound I-115, 4-[(1S,4S,5R)-5-{[3-(2-chloro-6-methylphenyl)-5-cyclopropyl-1,2-oxazol-4-yl]methoxy}-2-azabicyclo[2.2.1]heptan-2-yl]-2-fluorobenzoic Acid], the pEC50 [1] is reported as 9.6, the Emax [1] is reported as 144% and the Emax [2] is reported as 108%. It also gave an EC50 [2] of 2 nM.
With `O=C(c1ccc(N2C[C@@H]3C[C@H]2C[C@H]3OCc2c(-c3c(Cl)cccc3Cl)noc2C2CC2)cc1)C(F)(F)F` [Compound I-142, 1-{4-[(1S,4S,5R)-5-{[5-cyclopropyl-3-(2,6-dichlorophenyl)-1,2-oxazol-4-yl]methoxy}-2-azabicyclo[2.2.1]heptan-2-yl]phenyl}-2,2,2-trifluoroethan-1-one] the pEC50 [1] was 7.8, the Emax [1] was 78% and the Emax [2] was 104%. It also gave an EC50 [2] of 20 nM.
`O=C(NS(=O)(=O)C1CC1)c1ccc(N2C[C@@H]3C[C@H]2C[C@H]3OCc2c(-c3c(Cl)cccc3Cl)noc2C2(F)CC2)c(F)c1` [Compound I-197, N-(cyclopropylsulfonyl)-4-((1S,4S,5R)-5-((3-(2,6-dichlorophenyl)-5-(1-fluorocyclopropyl)isoxazol-4-yl)methoxy)-2-azabicyclo[2.2.1]heptan-2-yl)-3-fluorobenzamide] was tested, and the pEC50 [1] was 8.5, the Emax [1] was 167% and the Emax [2] was 111%. The EC50 [2] was 0.501 nM.
